These results are taken from ChEMBL document CHEMBL1157234, “Isoflavonoids with antiestrogenic activity from Millettia pachycarpa” (J Nat Prod, 2006).

This assay concerns the target T1, Estrogen receptor (Homo sapiens, UniProt P03372).
T1 sequence (P03372 whole entry): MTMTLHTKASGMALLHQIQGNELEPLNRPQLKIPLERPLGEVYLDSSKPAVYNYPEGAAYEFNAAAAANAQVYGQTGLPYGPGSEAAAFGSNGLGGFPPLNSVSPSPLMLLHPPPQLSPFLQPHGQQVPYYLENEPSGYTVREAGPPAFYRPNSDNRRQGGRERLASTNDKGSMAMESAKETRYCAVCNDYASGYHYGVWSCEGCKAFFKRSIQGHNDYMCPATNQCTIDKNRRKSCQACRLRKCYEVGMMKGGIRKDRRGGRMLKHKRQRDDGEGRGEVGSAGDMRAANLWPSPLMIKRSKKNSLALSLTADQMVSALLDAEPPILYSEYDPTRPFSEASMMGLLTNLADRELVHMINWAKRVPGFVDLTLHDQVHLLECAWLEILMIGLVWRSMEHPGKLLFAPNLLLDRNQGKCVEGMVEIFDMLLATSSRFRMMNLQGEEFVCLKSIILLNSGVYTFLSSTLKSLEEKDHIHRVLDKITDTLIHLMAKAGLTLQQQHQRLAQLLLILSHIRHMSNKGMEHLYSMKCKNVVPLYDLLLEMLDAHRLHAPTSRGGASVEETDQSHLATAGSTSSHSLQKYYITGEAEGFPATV
Nature of the assay: Antiestrogenic activity at estrogen receptor alpha expressed in yeast cells assessed as inhibition of 17-beta-estradiol-induced beta-galactosidase activity by two hybrid assay. It counts as cell-based.
Broadly, the IC50 is the concentration needed to halve the response being measured. Turning to `C=C(C)C(O)Cc1c(O)c(CC=C(C)C)c(O)c2c(=O)c(-c3ccc(O)c(O)c3)coc12` (racemic), the IC50 came to 18 µM.

In the case of `CC(C)=CCc1c2c(c3occ(-c4ccc(O)c(O)c4)c(=O)c3c1O)CC(C(C)(C)O)O2` (racemic) [(+/-)-FUROWANIN B], the IC50 amounted to 13 µM.

With `C=C(C)C(O)Cc1c(O)c(CC=C(C)C)c2occ(-c3ccc(O)c(O)c3)c(=O)c2c1O` (racemic) [MILLEWANIN G], the half-inhibitory concentration (IC50) came out at 29 µM.
